Assay results published in PMC12006790 (Synthetic Biology, 2025).

Legend:
HjCel7A = molecular target: T1, HjCel7A (Trichoderma reesei, UniProt P62694); assay: p-nitrophenol release, […] nm; type: biochemical; settings: 2 mM substrate, PBS pH 7.4, 40 °C, 12 h
T1 sequence (P62694 18-513): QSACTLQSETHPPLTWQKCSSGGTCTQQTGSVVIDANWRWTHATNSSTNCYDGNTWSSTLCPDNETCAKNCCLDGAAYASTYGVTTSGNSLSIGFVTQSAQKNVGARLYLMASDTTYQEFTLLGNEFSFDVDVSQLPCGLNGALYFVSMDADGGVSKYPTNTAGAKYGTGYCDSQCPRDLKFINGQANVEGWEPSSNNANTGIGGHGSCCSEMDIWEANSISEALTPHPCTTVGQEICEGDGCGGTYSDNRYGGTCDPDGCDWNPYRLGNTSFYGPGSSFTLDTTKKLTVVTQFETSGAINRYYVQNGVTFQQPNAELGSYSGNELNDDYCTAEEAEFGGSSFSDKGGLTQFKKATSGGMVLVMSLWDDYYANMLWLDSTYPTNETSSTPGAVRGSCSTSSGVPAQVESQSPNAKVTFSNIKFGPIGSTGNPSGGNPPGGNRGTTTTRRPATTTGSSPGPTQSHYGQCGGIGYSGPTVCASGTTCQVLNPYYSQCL

CelEdx16 = molecular target: T2, CelEdx16 (Clostridiaceae bacterium AN-C16-KBRB, UniProt E0A3Q5); assay: p-nitrophenol release, […] nm; type: biochemical; settings: 2 mM substrate, PBS pH 7.4, 40 °C, 12 h
T2 sequence (E0A3Q5 1-367): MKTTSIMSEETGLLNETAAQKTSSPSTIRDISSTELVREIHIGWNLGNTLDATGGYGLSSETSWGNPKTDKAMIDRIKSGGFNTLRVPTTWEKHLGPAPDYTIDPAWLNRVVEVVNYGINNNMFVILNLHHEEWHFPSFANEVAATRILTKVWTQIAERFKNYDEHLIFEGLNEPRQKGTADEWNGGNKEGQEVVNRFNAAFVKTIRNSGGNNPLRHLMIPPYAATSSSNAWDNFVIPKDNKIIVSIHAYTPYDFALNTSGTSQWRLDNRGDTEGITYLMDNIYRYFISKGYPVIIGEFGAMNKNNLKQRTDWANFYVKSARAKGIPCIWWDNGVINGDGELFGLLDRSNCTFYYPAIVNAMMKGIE

O=[N+]([O-])c1ccc(O[C@@H]2O[C@H](CO)[C@@H](O[C@@H]3O[C@H](CO)[C@@H](O)[C@H](O)[C@H]3O)[C@H](O)[C@H]2O)cc1 [p-nitrophenyl β-D-cellobioside]
p-nitrophenol release, 405 nm; cell-free CB-biosensor (HjCel7A): pNP assay detected significant signals for CelEdx16 and HjCel7A (CBHI) | p-nitrophenol release, 405 nm; cell-free CB-biosensor (CelEdx16): pNP assay detected significant signals for CelEdx16 and HjCel7A (CBHI)
